Values of other authors, collected in patent publication US20040086492A1, “Method of treating tumor and consignment system of proliferating and processing activated lymphocytes to be used in parallel to pdt” (priority 2001, published 2004).

Settings: stated as a characteristic of Photofrin

rate taken into cancerous tissue relative to normal tissue: approximately 10 times
Substance: porfirmer sodium [Photofrin]
